The record followed here is patent US20100204129A1, “USE OF A PEPTIDE AS A THERAPEUTIC AGENT” (priority 2008, published 2010).

Molecules are shown by their SMILES. Non-standard residues stand in square brackets, D forms with d. Residues, ends and D or L forms follow the SMILES beside them.

One data set concerns HCMV strain AD169. Kind of data set: HCMV plaque reduction assay in MRC-5 cells. The following applies: HCMV in MRC-5 cells; peptide 10 micrograms per ml; 7-10 days. A general note: Plaque reduction counts the foci of infection that form in a cell layer.
The next data set relates to A549 cells. Kind of data set: Propidium iodide cell cycle assay. It counts as cell-based, human. The following applies: peptide 10 micrograms per ml, 24 hours, FACS. The text has this: Human A549 cells (carcinomic human alveolar basal epithelial cells) were utilized in the experiments employing the Propidium iodide cell cycle assay. The eukaryotic cell cycle is a series of events that take place in a cell leading to its replication. The regulation of the cell cycle involves steps crucial to the cell, including detecting and repairing genetic damage, and provision of various checks to prevent uncontrolled cell division. The molecular events that control the cell cycle are ordered and directional; that is, each process occurs in a sequential fashion. The cell cycle consists of four distinct phases: G1 phase, S phase, G2 phase (collectively known as interphase) and M phase. M phase is itself composed of two tightly coupled processes: mitosis, in which the cell's chromosomes are divided between the two daughter cells, and cytokinesis, in which the cell's cytoplasm divides forming distinct cells. Activation of each phase is dependent on the proper progression and completion of the previous one. Cells that have temporarily or reversibly stopped dividing are said to have entered a state of quiescence called Go phase. The relatively brief M phase consists of nuclear division and cytoplasmic division. The first phase within interphase, from the end of the previous M phase till the beginning of DNA synthesis is called G1 (G indicating gap or growth). During this phase the biosynthetic activities of the cell resume at a high rate. This phase is marked by synthesis of various enzymes that are required in S phase, mainly those needed for DNA replication. The ensuing S phase starts when DNA synthesis commences; when it is complete, all of the chromosomes have been replicated. The cell then enters the G2 phase, which lasts until the cell enters mitosis. Significant protein synthesis occurs during this phase, mainly involving the production of microtubules, which are required during the process of mitosis. […]
Propidium iodide is an intercalating agent and a fluorescent molecule that can be used to stain DNA. […] After incubation for 40 min at 37° C., cells were analyzed in the FACS.

In data set [1] the test system is Human Peripheral Blood Mononuclear Cells (PBMC). Kind of data set: T cell proliferation assay (PHA, 3H-thymidine). It counts as cell-based. The following applies: peptide 10 micrograms per ml, 3H-thymidine incorporation. How it is done: Human Peripheral Blood Mononuclear Cells (PBMC) were obtained from normal human donors. The T cell proliferation was induced by stimulation of the cells with the T cell mitogen phytohemagglutinin (PHA), either in the absence (positive proliferation control), or in the presence of test peptide—10 micrograms per ml—to examine their effects on the T cell proliferating response. 10^5/well PBMC were plated in 96-well microtiter plates and assayed in duplicate with the peptide. Cell cultures were incubated at 37° C. for 3 days in a 5% CO2 incubator and were thereafter pulsed with 1 microCi/well ^3H-thymidine for additional 12 hours of culture. At the end of incubation time, the plates were harvested and the cells counted by liquid scintillation for the incorporation of ^3H-thymidine as a measure of T cell proliferation.
(In general: Incorporation of labelled thymidine or its analogues reports DNA synthesis.)

Data set [2] can be described thus: Cytotoxicity in HCMV assay (CellTiter 96 cell viability). The following applies: human, MRC-5 cells (embryonal lung fibroblasts).
Description: For cytotoxicity testing, MRC-5 cells were seeded at 2,500 cells/well in 96 well plates using growth medium. […] The following day, peptide was added and tested in duplicates. After a 6 days incubation period, cell viability was measured using CellTiter 96 Solution (Promega). Plates were incubated for additional 4 hours at 37° C. Adhesive plate sealers were used in place of lids, the sealed plates were inverted several times to mix the soluble formazan product and the plate was read spectrophotometrically at 490/560 nm with a Molecular Devices Vmax plate reader.
The subject of data set [3] is hepatitis B virus (HBV) ayw strain. Kind of data set: HBV assay, secreted HBV DNA by TaqMan PCR in HepG2-2.2.15. The following applies: peptide 10 micrograms per ml; six days; HBV DNA in supernatant. On the technique in general: Real-time PCR tracks product formation cycle by cycle.
The nature of data set [4]: Cytotoxicity in HIV-1 assay (MTS cell viability). The following applies: human, CEM-SS cells (uninfected, cells plus peptide only).
The test system of data set [5] is Primary Human endothelial cells (HUVEC). Kind of data set: Endothelial cell migration assay. The data set is classed as cell-based. The following applies: peptide 10 micrograms per ml, 22 hours. Here is the method:
Endothelial cell migration is a prerequisite for the process of neo-vascularization or angiogenesis which is crucial for on-site recruitment of blood vessel formation. Primary Human endothelial cells (HUVEC) were seeded in insert chambers with 3 micrometer pore size of multi-transwell plate for 6 hours at 37° C. in Endothelial Cell Basal Medium (EBM) supplemented with 0.1% bovine serum albumin. Thereafter, designated concentration of test peptide—10 micrograms per ml—was added in duplicate wells. The endothelia were allowed to migrate for 22 hours at 37° C., then, migrated cells were fixed and stained with Hoechst 33342 dye. Images of 3 fields per insert were taken and the number of migrated cells per field were quantified using the ImageProPlus software. Data were analyzed for the average number of the migrated cells and standard deviation of six data points for each treatment condition. Active test peptide against HUVEC migration was determined based on 50% inhibition of migrated cells as compared with the control. Statistic p values were computed using the Student's t-test.

Another data set deals with HIV-1IIIB. Kind of data set: HIV-1 antiviral assay (CPE reduction, MTS). It counts as cell-based. The following applies: peptide 10 micrograms per ml, 6 days post-infection.

`CC(C)C[C@H](NC(=O)[C@H](CC(C)C)NC(=O)[C@@H](Cc1c[nH]c2ccccc12)NC(=O)[C@H](Cc1ccccc1)NC(=O)[C@@H](Cc1c[nH]c2ccccc12)NC(=O)[C@H](CCC(N)=O)NC(=O)[C@H](CCC(N)=O)NC(=O)[C@@H]1CCCN1C(=O)[C@H](CCCCN)NC(=O)[C@@H]1CCCN1C(=O)[C@@H](CCCNC(=N)N)NC(=O)[C@@H]1CCCN1C(=O)CNC(=O)[C@H](CC(C)C)NC(=O)[C@H](CC(C)C)NC(=O)[C@H](Cc1ccc(O)cc1)NC(=O)CNC(=O)[C@H](C)NC(=O)[C@H](CO)NC(=O)[C@H](CC(N)=O)NC(=O)[C@H](CC(C)C)NC(=O)[C@@H](NC(=O)[C@H](Cc1c[nH]c2ccccc12)NC(=O)CN)[C@@H](C)O)C(N)=O` [Spantide-I, Gly-Trp-Thr-Leu-Asn-Ser-Ala-Gly-Tyr-Leu-Leu-Gly-Pro-D-Arg-Pro-Lys-Pro-Gln-Gln-D-Trp-Phe-D-Trp-Leu-Leu-NH2] (H-GWTLNSAGYLLGP[dR]PKPQQ[dW]F[dW]LL-NH2): in the data set on HCMV strain AD169, the “% plaque reduction” value worked out at 0.0%. Moreover, in the data set on A549 cells, the “Cell cycle analysis G0/G1” value was determined as 61.6, the “Cell cycle analysis G2/M” value is 7.7 and the “Cell cycle analysis S” value worked out at 30.7. The “% of PHA induced control” value in data set [1] stood at 96.3%. Besides, the viability at 144 h in data set [2] was determined as 100%. Moreover, the “% inhibition of HBV replication in HEP G2 cells” value in data set [3] amounted to 14.1%. In data set [4], the viability at 10 micrograms per ml turned out to be 100%. For the same molecule, the “% inhibition of migration” value in data set [5] is −25%. In the data set with HIV-1IIIB, the “% CPE reduction in HIV-1 infected CEM-SS cells” value is listed as 0.0%.

In general, viability refers to a read-out of living cells in per cent, often relative to untreated cells.
